Reference: patent US20040171489A1, “Synergistic active compound combinations for controlling harmful plants” (priority 1998, published 2004)

How the values were obtained:
[1] = system: Zea mays (corn); assay: Example 17 field trial, pre-emergence: crop damage; type: in vivo; conditions: in vivo
From the text: (§1) Seeds or rhizome pieces of monocotyledonous and dicotyledonous weed plants are placed in sandy loam soil in pots and covered with soil. The compositions, formulated in the form of concentrated aqueous solutions, wettable powders or emulsion concentrates, are then applied to the surface of the soil cover as aqueous solution, suspension or emulsion at an application rate of 600 to 800 l of water/ha (converted), in various dosages. After the treatment, the pots are placed in a greenhouse and kept under good growth conditions for the weeds. After the test plants have emerged, the damage to the plants or the negative effects on the emergence is scored visually after a test period of 3 to 4 weeks by comparison with untreated controls. As shown by the test results, the compositions according to the invention have good herbicidal pre-emergence activity against a broad spectrum of weed grasses and broad-leaved weeds.
The herbicidal efficacy of the active compounds or active compound mixtures was scored visually using the treated plots in comparison to untreated control plots. The damage and development of all above-ground parts of the plants were recorded. […]
(§2) If the observed activity values already exceed the formal sum of the values for the trials with the individual applications, they also exceed the expected value according to Colby which is calculated using the following formula and which is likewise considered to be an indication of synergism (cf. S. R. Colby; in Weeds 15 (1967) p. 20 to 22):
(§3) Crop plants were grown outdoors on plots under natural outdoor conditions, and seeds or rhizome pieces of typical harmful plants were laid out or the natural weed growth was utilized. […] After the application, for example 2, 4, 6 and 8 weeks after the application, the effect of the preparations was scored visually by comparison with untreated controls (cf. scoring in Section 1). […]

[2] = system: Setaria faberi; assay: Example 17 field trial, pre-emergence: herbicidal effect; type: in vivo; conditions: 16 days after application
From the text: as §1
(§4) The herbicidal efficacy of the active compounds or active compound mixtures was scored visually using the treated plots in comparison to untreated control plots. The damage and development of all above-ground parts of the plants were recorded. Scoring was carried out using a percentage scale (100% effect=all plants killed; 50% effect=50% of the plants and the green parts of the plants killed; 0% effect=no noticeable effect=like control plot. The scores of in each case 4 plots were averaged.
as §2
(§5) Crop plants were grown outdoors on plots under natural outdoor conditions, and seeds or rhizome pieces of typical harmful plants were laid out or the natural weed growth was utilized. Treatment with the compositions according to the invention was carried out after the harmful plants had emerged and the crop plants were, generally, at the 2- to 4-leaf stage; in some cases (as stated), application of individual active compounds or active compound combinations was carried out pre-emergence (cf. Section 1) or post-emergence (cf. Section 2) or as a sequential treatment partly pre-emergence and/or post-emergence. After the application, for example 2, 4, 6 and 8 weeks after the application, the effect of the preparations was scored visually by comparison with untreated controls (cf. scoring in Section 1). In the field trial as well, the compositions according to the invention have synergistic herbicidal activity against a broad spectrum of economically important weed grasses and broad-leaved weeds. […] Moreover, the effects in essential phases of the scoring period were above the expected values according to Colby, also indicating synergism. In contrast, the crop plants were, as a consequence of the treatments with the herbicidal compositions, damaged only to a small degree, if at all.

[3] = system: Ipomoea hederacea; assay: as above; type: in vivo; conditions: 16 days after application
From the text: as §1, §4, §2, §5

[4] = system: winter wheat; assay: Example 9 field trials, application 1-3 leaf stage broad-leaved weeds: crop damage; type: in vivo, Triticum aestivum
Description: as §4, §2
as §5, with “In contrast, the crop plants were, as a consequence of the treatments with the herbicidal compositions, damaged only to a small degree, if at all.” left out

[5] = system: winter barley; assay: as above; type: in vivo, Hordeum vulgare
Description: as §4, §2
as §5, with “In contrast, the crop plants were, as a consequence of the treatments with the herbicidal compositions, damaged only to a small degree, if at all.” left out

[6] = system: Capsella bursa-pastoris; assay: Example 9 field trials, application 1-3 leaf stage broad-leaved weeds: herbicidal effect; type: in vivo; conditions: 120 to 160 days after application
Description: as §4, §2, §5

[7] = system: Alopecurus myosuroides; assay: as above; type: in vivo; conditions: 120 to 160 days after application
Description: as §4, §2, §5

[8] = system: winter barley; assay: Example 1 field trial, 2-4 leaf stage: crop damage; type: in vivo, Hordeum vulgare; conditions: winter barley (Hordeum vulgare), in vivo, 28 days
Description: as §4, §2, §5

[9] = system: winter wheat; assay: Example 10 pre-emergence application, fall: crop damage; type: in vivo, Triticum aestivum; conditions: winter wheat (Triticum aestivum), in vivo, 169 days
From the text: as §1, §4, §2, §5

[10] = system: Galium aparine; assay: Example 10 pre-emergence application, fall: herbicidal effect; type: in vivo; conditions: 1000 g of ai/ha; 169 days after application
From the text: as §1, §4, §2, §5

[11] = system: Papaver rhoeas; assay: Example 1 field trial, 2-4 leaf stage: herbicidal effect; type: in vivo; conditions: 1000 g of ai/ha; 28 days after application
Description: as §4, §2, §5

[12] = system: Stellaria media; assay: Example 7b field trial, 2-4 leaf stage: herbicidal effect; type: in vivo; conditions: 50 g of ai/ha; 28 days after application
Description: as §4, §2, §3

[13] = system: winter wheat; assay: Example 7a field trial, 2-4 leaf stage: crop damage; type: in vivo, Triticum aestivum; conditions: 28 days after application
Description: as §4, §2
as §5, with “In contrast, the crop plants were, as a consequence of the treatments with the herbicidal compositions, damaged only to a small degree, if at all.” left out

[14] = system: winter wheat; assay: Example 6 field trial, stage begin of VERPE blossom: crop damage; type: in vivo, Triticum aestivum; conditions: 50 g of ai/ha; 28 days after application
Description: as §4, §2, §3

[15] = system: Veronica persicaria; assay: Example 6 field trial, stage begin of VERPE blossom: herbicidal effect; type: in vivo; conditions: 50 g of ai/ha; 28 days after application
Description: as §4, §2, §3

[16] = system: winter wheat; assay: Example 7b field trial, 2-4 leaf stage: crop damage; type: in vivo, Triticum aestivum; conditions: 50 g of ai/ha; 28 days after application
Description: as §4, §2, §3

[17] = system: Chenopodium album; assay: Example 7a field trial, 2-4 leaf stage: herbicidal effect; type: in vivo; conditions: 28 days after application
Description: as §4, §2
as §5, with “In contrast, the crop plants were, as a consequence of the treatments with the herbicidal compositions, damaged only to a small degree, if at all.” left out

[18] = 100 g of ai/ha, 120 to 160 days after application

CS(=O)(=O)c1cc(C(F)(F)F)ccc1C(=O)c1cnoc1C1CC1 [(B3.4.5), isoxaflutole, reference compound]
damage, ZEAMA [1]: 0% | herbicidal effect, SETFA ([2]; 105 g of ai/ha): 90% | herbicidal effect, SETFA ([2]; 210 g of ai/ha): 93% | herbicidal effect, IPOHE ([3]; 105 g of ai/ha): 87% | herbicidal effect, IPOHE ([3]; 210 g of ai/ha): 85%

CC(C)(F)c1nc(N)nc(NC(CCCc2ccccc2)C2CC2)n1 (stereo not drawn) [(A2), 4-amino-6-(1-fluoro-1-methylethyl)-2-(4-phenyl-1-cyclopropylbutylamino)-1,3,5-triazine]
damage, TRZAW [4, 18]: 0% | damage, HORVW [5, 18]: 0% | herbicidal effect, CAPBP ([6]; 100 g of ai/ha): 90% | herbicidal effect, ALOMY ([7]; 100 g of ai/ha): 0%

CC(C)c1ccc(NC(=O)N(C)C)cc1 [(B1.1.1), isoproturon, reference compound]
damage, HORVW [8]: 0% | damage, TRZAW ([4]; winter wheat (Triticum aestivum), in vivo): 0% | damage, TRZAW [9]: 0% | damage, HORVW ([5]; winter barley (Hordeum vulgare), in vivo): 0% | herbicidal effect, GALAP [10]: 15% | herbicidal effect, PAPRH [11]: 15% | herbicidal effect, CAPBP ([6]; 2000 g of ai/ha): 0% | herbicidal effect, ALOMY ([7]; 2000 g of ai/ha): 0%

CCC(CCc1ccccc1)Nc1nc(N)nc(C(C)(C)F)n1 (stereo not drawn) [(A3), 4-amino-6-(1-fluoro-1-methylethyl)-2-(3-phenyl-1-ethylpropylamino)-1,3,5-triazine]
herbicidal effect, STEME [12]: 48% | damage, TRZAW ([13]; 25 g of ai/ha): 1% | damage, TRZAW ([13]; 50 g of ai/ha): 0% | damage, TRZAW ([13]; 100 g of ai/ha): 10% | damage, TRZAW [14]: 0% | herbicidal effect, VERPE [15]: 55% | damage, TRZAW [16]: 2% | herbicidal effect, CHEAL ([17]; 25 g of ai/ha): 5% | herbicidal effect, CHEAL ([17]; 50 g of ai/ha): 35% | herbicidal effect, CHEAL ([17]; 100 g of ai/ha): 85%
